Measured values published in patent US20120065126A1, “Pharmaceutical Compositions Containing Antifungal Peptides” (BASF SE, priority 2009, published 2012).

Columns and labels:
M. furfur = experiment: Effect of P18 variants (CFU); type: cell-based, Malassezia furfur; settings: 50 μM peptide, with DMSO; 24 h
Experimental: The studies described hereinafter were conducted on the Malassezia furfur strain DSM 6170.
The inhibitory effect of the following P18 variants on M. furfur was studied:
The growth test was effected as follows: a shake culture containing M472 Pityrosporum medium was inoculated with M. furfur and incubated with shaking at 30° C. and 200 rpm overnight.
A 96-well microtiter plate was filled with 100 μl per well of M472 Pityrosporum medium and inoculated with M. furfur suspension from the overnight culture. The M. furfur suspension was adjusted at the start of the experiment to an optical density, measured at 600 nm, of 0.1.
The peptide variants were dissolved with a final concentration of 1 mM in dimethyl sulfoxide (DMSO). It is also possible to dispense with DMSO and to use a purely aqueous peptide solution. 5 μl of this solution were added to 100 μl of M. furfur suspension (final concentration of the P18 peptide 50 μM). In a control mixture, the same amount of DMSO without P18 peptide was added.
The microtiter plate was incubated with shaking at 30°.
After 24 h, the colony forming units (CFU) were determined by streaking 10 μl of each of the suspensions and, after incubation over the course of 6 days, counting the colonies. Two independent experiments each with three identical mixtures were conducted, and the number of colony forming units was averaged.

Malassezia furfur = experiment: Effect of P18 in the presence of nonionic and zwitterionic surfactants (CFU); type: cell-based; settings: 24 hours
Experimental: The aim of the experiment was to study the effect of nonionic and zwitterionic surfactants on the activity of P18 peptide (P18 sequence […]). For this purpose, the following surfactants were used: Pluracare F 68 (a polyoxyethylene-polyoxypropylene-polyoxyethylene block copolymer) Plantacare 818 (a glucoside) Tego Betain L7 (cocamidopropyl betaine) The growth test was effected as follows: a shake culture containing […]. furfur and incubated with shaking at 30° C. and 200 rpm overnight. […] The concentrations of the detergent solutions were adjusted such that the final concentration of the particular detergent in the mixture was 2%; 4% or 6%. The concentrations of the P18 peptide solutions were adjusted such that the final concentration of the P18 peptide in the mixture was 0 μM; 50 μM; 100 μM; 250 μM; or 500 μM. The microtiter plate was incubated with shaking at 30° C. […] The CFU was determined in order to rule out any influence of the biphasic medium, and also the growth form of M. furfur, on the optical density. The experiments were each conducted in triplicate determination at least in two independent experiments.

[1] = test system: Malassezia furfur (DSM 6170); type: cell-based; settings: DSM 6170, 72 h
Experimental: Minimum inhibitory concentration of peptide P18 (P18 sequence H-KWKLFKKIPKFLHLAKKF-NH2 (Bachem AG, Switzerland)) based on Malassezia furfur (DSM 6170)
Growth medium M472 Pityrosporum medium according to DSMZ:
40 g of malt extract (Becton, Dickinson and Company, Sparks, USA) 20 g of ox bile (Merck, Darmstadt, Germany)
A shake culture containing M472 Pityrosporum medium was inoculated with M. furfur and incubated with shaking at 30° C. and 200 rpm overnight.
The suspension was adjusted to an optical density measured at 600 nm of 0.1. A 96-well microtiter plate was filled with 95 μl per well of the M. furfur suspension. Then a dilution series of the peptide with a final concentration in the wells between 0 and 1000 ppm was added. To this end, 5 μl per well of peptide solution with a concentration in the range from 0 ppm to 20 000 ppm were added to the M. furfur suspension, such that final concentrations of the peptide in the wells in the range between 0 ppm and 1000 ppm were obtained.
The microtiter plate was incubated at 30° C., 600 rpm. The fungal growth was assessed by measuring the optical density at 620 nm and observed over 72 hours. The experiments were conducted at least in double determination and independently repeated at least once.

[2] = test system: S. epidermidis (DSM 1798); experiment: P18 in pharmaceutical base formulation (CFU); type: cell-based, Staphylococcus epidermidis; settings: 10 000 ppm in the formulation, mixed 1:9 with suspension
Experimental: The aim of the experiment was to study the effect of a pharmaceutical base formulation containing the P18 peptide ingredient (P18 sequence H-KWKLFKKIPKFLHLAKKF-NH2 (Bachem AG, Switzerland)) on further fungi and bacteria. For this purpose, the following base formulation was used: […]
1% hydroxycellulose 10% propylene glycol made up with water.
Based on the base formulation, formulations containing 10 000 ppm of P18 peptide were prepared from a 20% concentrate solution.
The effect of the formulations on S. epidermidis (DSM 1798), M. furfur (DSM 6170) and T. rubrum (DSM 21146) was studied.
TSBY growth medium for S. epidermidis Ready-made TSB medium (Becton, Dickinson and Company, Sparks, USA) 17 g of pancreatin-degraded casein 3 g of pancreatin-degraded soya 2.5 g of dextrose 5 g of sodium chloride 2.5 g of dipotassium phosphate 3 g of yeast extract (Becton, Dickinson and Company, Sparks, USA) make up to 1 liter, set pH 7 […]
1.5 ml reaction vessels were each filled with 1 ml of medium and inoculated with the fungal or bacterial suspension from the overnight culture such that the resulting suspensions at the start of the experiment had been adjusted to an optical density, measured at 600 nm, of 0.1. […] After incubation over 24 hours, the colonies on the plates were counted.

## H-KWKLFKKIPKFLHLAKKF-NH2 [P18, H-KWKLFKKIPKFLHLAKKF-NH2]
M. furfur
  Averaged number of colony forming units (CFU): 0 CFU
Malassezia furfur; Plantacare 818 2%, P18 50 μM
  Colony forming units (CFU) counted per μl: 6 CFU per μl
Malassezia furfur; Plantacare 818 2%, P18 100 μM
  Colony forming units (CFU) counted per μl: 0 CFU per μl
Malassezia furfur; Plantacare 818 2%, P18 250 μM
  Colony forming units (CFU) counted per μl: 0 CFU per μl
Malassezia furfur; Plantacare 818 2%, P18 500 μM
  Colony forming units (CFU) counted per μl: 0 CFU per μl
Malassezia furfur; Plantacare 818 4%, P18 50 μM
  Colony forming units (CFU) counted per μl: 39 CFU per μl
Malassezia furfur; Plantacare 818 4%, P18 100 μM
  Colony forming units (CFU) counted per μl: 5 CFU per μl
Malassezia furfur; Plantacare 818 4%, P18 250 μM
  Colony forming units (CFU) counted per μl: 0 CFU per μl
Malassezia furfur; Plantacare 818 4%, P18 500 μM
  Colony forming units (CFU) counted per μl: 0 CFU per μl
Malassezia furfur; Plantacare 818 6%, P18 50 μM
  Colony forming units (CFU) counted per μl: 106 CFU per μl
Malassezia furfur; Plantacare 818 6%, P18 100 μM
  Colony forming units (CFU) counted per μl: 10 CFU per μl
Malassezia furfur; Plantacare 818 6%, P18 250 μM
  Colony forming units (CFU) counted per μl: 0 CFU per μl
Malassezia furfur; Plantacare 818 6%, P18 500 μM
  Colony forming units (CFU) counted per μl: 0 CFU per μl
Malassezia furfur; Pluracare F68 2%, P18 50 μM
  Colony forming units (CFU) counted per μl: 4 CFU per μl
Malassezia furfur; Pluracare F68 2%, P18 100 μM
  Colony forming units (CFU) counted per μl: 1 CFU per μl
Malassezia furfur; Pluracare F68 2%, P18 250 μM
  Colony forming units (CFU) counted per μl: 0 CFU per μl
Malassezia furfur; Pluracare F68 2%, P18 500 μM
  Colony forming units (CFU) counted per μl: 0 CFU per μl
Malassezia furfur; Pluracare F68 4%, P18 50 μM
  Colony forming units (CFU) counted per μl: 2 CFU per μl
Malassezia furfur; Pluracare F68 4%, P18 100 μM
  Colony forming units (CFU) counted per μl: 0 CFU per μl
Malassezia furfur; Pluracare F68 4%, P18 250 μM
  Colony forming units (CFU) counted per μl: 0 CFU per μl
Malassezia furfur; Pluracare F68 4%, P18 500 μM
  Colony forming units (CFU) counted per μl: 0 CFU per μl
Malassezia furfur; Tego Betain L7 2%, P18 50 μM
  Colony forming units (CFU) counted per μl: 0 CFU per μl
Malassezia furfur; Tego Betain L7 2%, P18 100 μM
  Colony forming units (CFU) counted per μl: 0 CFU per μl
Malassezia furfur; Tego Betain L7 2%, P18 250 μM
  Colony forming units (CFU) counted per μl: 0 CFU per μl
Malassezia furfur; Tego Betain L7 2%, P18 500 μM
  Colony forming units (CFU) counted per μl: 0 CFU per μl
Malassezia furfur; Tego Betain L7 4%, P18 50 μM
  Colony forming units (CFU) counted per μl: 3 CFU per μl
Malassezia furfur; Tego Betain L7 4%, P18 100 μM
  Colony forming units (CFU) counted per μl: 0 CFU per μl
Malassezia furfur; Tego Betain L7 4%, P18 250 μM
  Colony forming units (CFU) counted per μl: 0 CFU per μl
Malassezia furfur; Tego Betain L7 4%, P18 500 μM
  Colony forming units (CFU) counted per μl: 0 CFU per μl
Malassezia furfur; Tego Betain L7 6%, P18 50 μM
  Colony forming units (CFU) counted per μl: 0 CFU per μl
Malassezia furfur; Tego Betain L7 6%, P18 100 μM
  Colony forming units (CFU) counted per μl: 0 CFU per μl
Malassezia furfur; Tego Betain L7 6%, P18 250 μM
  Colony forming units (CFU) counted per μl: 0 CFU per μl
Malassezia furfur; Tego Betain L7 6%, P18 500 μM
  Colony forming units (CFU) counted per μl: 0 CFU per μl
[1]
  Minimum inhibitory concentration: 125 ppm
[2]; 5 minutes
  Colony forming units after the incubation time specified: 790 ± 393 CFU
[2]; 60 minutes
  Colony forming units after the incubation time specified: 513 ± 20 CFU
